Earlier results in US5252560A, “Cyclic imide derivatives, compositions and use” (Glaxo Inc., priority 1991, dated 1993).

Test system: arthritis in a collagen-induced model
Conditions: large doses; collagen-induced model in the mouse

In the case of “TIMP: the natural inhibitor of collagenase”, the severity of arthritis is given as “decreases the severity of arthritis”.
